Each block holds one compound with its values, some of them ahead of it.
Tests used:
[1] = molecular target: T1, urate transporter 1 (URAT1) (Homo sapiens, UniProt Q96S37); assay: non-isotopic uric acid uptake inhibition in URAT1-overexpressing HEK293 cells (positive control drug); format: cell-based
T1 construct: gene SLC22A12
T1 sequence (Q96S37 1-553): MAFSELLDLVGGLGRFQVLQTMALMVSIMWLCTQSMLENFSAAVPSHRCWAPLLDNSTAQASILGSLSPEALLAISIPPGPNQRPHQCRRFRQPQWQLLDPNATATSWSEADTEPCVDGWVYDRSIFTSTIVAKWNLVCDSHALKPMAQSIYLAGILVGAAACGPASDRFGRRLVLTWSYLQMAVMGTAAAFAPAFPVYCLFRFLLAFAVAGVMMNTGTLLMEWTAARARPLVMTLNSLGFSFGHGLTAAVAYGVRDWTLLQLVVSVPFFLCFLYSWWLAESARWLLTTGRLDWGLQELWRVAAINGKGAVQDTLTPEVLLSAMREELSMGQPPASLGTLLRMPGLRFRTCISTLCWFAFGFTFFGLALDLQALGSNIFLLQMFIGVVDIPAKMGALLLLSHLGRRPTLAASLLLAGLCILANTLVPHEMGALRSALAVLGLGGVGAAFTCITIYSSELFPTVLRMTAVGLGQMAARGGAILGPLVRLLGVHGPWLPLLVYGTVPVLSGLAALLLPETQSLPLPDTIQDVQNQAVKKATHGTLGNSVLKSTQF

[2] = molecular target: T1, urate transporter 1 (URAT1); assay: non-isotopic uric acid uptake inhibition in URAT1-overexpressing HEK293 cells; format: cell-based
[3] = molecular target: T2, xanthine oxidoreductase (XOR) (Bos taurus, UniProt P80457)
T2 construct: gene XDH
T2 sequence (P80457 2-1332): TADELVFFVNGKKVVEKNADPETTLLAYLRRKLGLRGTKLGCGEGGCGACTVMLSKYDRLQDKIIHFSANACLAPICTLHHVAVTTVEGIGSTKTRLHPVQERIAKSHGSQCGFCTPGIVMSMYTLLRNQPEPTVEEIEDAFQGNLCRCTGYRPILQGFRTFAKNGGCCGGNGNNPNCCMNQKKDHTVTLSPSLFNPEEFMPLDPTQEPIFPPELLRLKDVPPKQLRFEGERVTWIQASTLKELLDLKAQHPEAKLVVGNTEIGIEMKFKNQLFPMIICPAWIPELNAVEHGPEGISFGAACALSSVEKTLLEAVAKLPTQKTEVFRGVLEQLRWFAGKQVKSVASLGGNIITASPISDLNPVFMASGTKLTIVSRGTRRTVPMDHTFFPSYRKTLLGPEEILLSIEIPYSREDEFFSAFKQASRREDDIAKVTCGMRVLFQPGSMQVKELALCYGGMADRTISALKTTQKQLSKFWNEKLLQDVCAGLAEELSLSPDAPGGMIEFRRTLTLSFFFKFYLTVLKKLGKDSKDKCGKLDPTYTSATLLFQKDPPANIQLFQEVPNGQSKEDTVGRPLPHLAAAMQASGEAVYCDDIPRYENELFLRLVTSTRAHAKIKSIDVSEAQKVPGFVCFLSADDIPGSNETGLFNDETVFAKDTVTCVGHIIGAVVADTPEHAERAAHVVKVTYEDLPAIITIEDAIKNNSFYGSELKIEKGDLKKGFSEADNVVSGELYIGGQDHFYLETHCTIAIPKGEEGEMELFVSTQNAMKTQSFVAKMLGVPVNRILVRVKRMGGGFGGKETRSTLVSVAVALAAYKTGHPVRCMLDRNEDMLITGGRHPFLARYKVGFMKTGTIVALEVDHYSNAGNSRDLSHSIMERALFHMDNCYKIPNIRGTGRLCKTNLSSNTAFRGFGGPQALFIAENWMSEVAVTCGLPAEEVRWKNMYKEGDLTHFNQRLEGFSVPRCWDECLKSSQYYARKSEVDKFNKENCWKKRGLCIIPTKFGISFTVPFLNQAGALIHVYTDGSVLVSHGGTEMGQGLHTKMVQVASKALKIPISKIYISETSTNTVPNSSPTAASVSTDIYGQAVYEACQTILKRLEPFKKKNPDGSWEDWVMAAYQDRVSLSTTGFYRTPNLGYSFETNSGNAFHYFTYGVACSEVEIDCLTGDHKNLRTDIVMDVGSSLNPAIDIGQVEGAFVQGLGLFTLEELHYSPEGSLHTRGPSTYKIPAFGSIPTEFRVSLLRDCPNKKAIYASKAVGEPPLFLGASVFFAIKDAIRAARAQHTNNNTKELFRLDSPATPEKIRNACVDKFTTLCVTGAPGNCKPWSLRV

IC50 [1]: 130 nM
Structure (SMILES): O=C(O)C1(Sc2ccnc3ccc(Br)cc23)CCC1 [SHR4640]

IC50 [2]: 1690 nM
Structure (SMILES): O=C(O)C1(Sc2ccccc2N2CCOc3ccccc32)CCC1 [CC18002]

Structure (SMILES): Cc1nc(-c2ccc(OCC(C)C)c(C#N)c2)sc1C(=O)O [febuxostat]
% inhibition at 0.1 μM [3]: 94.8
